Reference: patent US20070117743A1, “New antitumoral compounds” (priority 2003, published 2007)

Experiments:
Assay type in all cases: cell-based, human
[1] = system: IGROV-ET; assay: SRB colorimetric assay of cell growth and viability, IGROV-ET; conditions: 48 hours exposure, SRB; for CC50: read-out: LC50 IGROV-ET
[2] = system: DU-145; assay: SRB colorimetric assay of cell growth and viability, DU-145; conditions: 48 hours exposure, SRB
[3] = system: HeLa; assay: SRB colorimetric assay of cell growth and viability, HeLa; conditions: 48 hours exposure; for CC50: read-out: LC50 HELA
[4] = system: LNCaP; assay: SRB colorimetric assay of cell growth and viability, LNCaP; conditions: 48 hours exposure, SRB; for GI50: read-out: GI50 LN-caP; for CC50: read-out: LC50 LN-caP
[5] = system: HeLa-APL; assay: SRB colorimetric assay of cell growth and viability, HeLa-APL; conditions: 48 hours exposure; for CC50: read-out: LC50 HELA-APL
[6] = system: LoVo-Dox; assay: SRB colorimetric assay of cell growth and viability, LoVo-Dox; conditions: 48 hours exposure; for CC50: read-out: LC50 LOVO-DOX
How it was run: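 Human tumor cells seeded at 5×10^3/well in RPMI 1640 10% FBS, attached 18 hours, then exposed 48 hours to compound (10 to 10^−8 μg/mL). TCA-fixed, SRB-stained, OD 490 nm; triplicates give GI, TGI and LC values.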

[7] = system: IGROV-1; assay: SRB colorimetric assay of cell growth and viability, IGROV-1; conditions: 48 hours exposure, SRB
[8] = system: HT-29; assay: SRB colorimetric assay of cell growth and viability, HT-29; conditions: 48 hours exposure; for GI50: read-out: GI50 HT-29; for CC50: read-out: LC50 HT-29
[9] = system: SK-BR-3; assay: SRB colorimetric assay of cell growth and viability, SK-BR-3; conditions: 48 hours exposure, SRB
[10] = system: LoVo; assay: SRB colorimetric assay of cell growth and viability, LoVo; conditions: 48 hours exposure; for CC50: read-out: LC50 LOVO
[11] = system: PANC-1; assay: SRB colorimetric assay of cell growth and viability, PANC-1; conditions: 48 hours exposure; for CC50: read-out: LC50 PANC-1
[12] = system: K-562; assay: SRB colorimetric assay of cell growth and viability, K-562; conditions: 48 hours exposure; for CC50: read-out: LC50 K-562
[13] = system: SK-MEL-28; assay: SRB colorimetric assay of cell growth and viability, SK-MEL-28; conditions: 48 hours exposure, SRB; for CC50: read-out: LC50 MEL-28
[14] = system: A-549; assay: SRB colorimetric assay of cell growth and viability, A-549; conditions: 48 hours exposure; for GI50: read-out: GI50 A-549; for CC50: read-out: LC50 A-549

SMILES: C/C=C1\NC(=O)[C@H](Cc2ccccc2)NC(=O)[C@@H](C(C)C)NC(=O)[C@@H]([C@@H](C)CC)NC(=O)[C@H](NC(=O)[C@H](NC(=O)[C@H](CCCNC(=O)C(F)(F)F)NC(=O)[C@H]2CCCN2C(=O)[C@H](NC(=O)[C@@H](NC(=O)[C@@H](NC(=O)[C@H](NC(=O)CC[C@@H](C)CC)C(C)C)[C@@H](C)OC(=O)C(F)(F)F)C(C)C)C(C)C)[C@@H](C)CC)[C@@H](C)OC(=O)[C@H](C(C)C)NC1=O [Compound 95, [Orn(N^δTfa)^8,Thr(OTfa)^12, 4(S)MeHex^14]-Kahalalide F]
- GI50 [1]: 219 nM
- TGI IGROV-ET [1]: 3.77E−07 Molar
- CC50 [1]: 916 nM
- GI50 [2]: 892 nM
- LC50 (concentration causing 50% net cell kill) [2]: 3360 nM
- TGI DU-145 [2]: 1.73E−06 Molar
- GI50 ([3]; SRB): 162 nM
- TGI HELA ([3]; SRB): 3.06E−07 Molar
- CC50 ([3]; SRB): 579 nM
- TGI LN-caP [4]: 5.99E−06 Molar
- GI50 [4]: 1700 nM
- CC50 [4]: 5990 nM
- GI50 ([5]; SRB): 617 nM
- TGI HELA-APL ([5]; SRB): 1.52E−06 Molar
- CC50 ([5]; SRB): 3740 nM
- GI50 ([6]; SRB): 124 nM
- TGI LOVO-DOX ([6]; SRB): 2.41E−07 Molar
- CC50 ([6]; SRB): 471 nM
- GI50 [7]: 178 nM
- LC50 (concentration causing 50% net cell killing) [7]: 550 nM
- TGI IGROV [7]: 3.13E−07 Molar
- TGI HT-29 ([8]; SRB): 1.93E−07 Molar
- GI50 ([8]; SRB): 86.2 nM
- CC50 ([8]; SRB): 432 nM
- GI50 [9]: 73.1 nM
- LC50 [9]: 520 nM
- TGI SK-BR-3 [9]: 1.95E−07 Molar
- GI50 ([10]; SRB): 125 nM
- TGI LOVO ([10]; SRB): 2.34E−07 Molar
- CC50 ([10]; SRB): 437 nM
- GI50 ([11]; SRB): 3580 nM
- TGI PANC-1 ([11]; SRB): 5.99E−06 Molar
- CC50 ([11]; SRB): 5990 nM
- GI50 ([12]; SRB): 3570 nM
- TGI K-562 ([12]; SRB): 5.99E−06 Molar
- CC50 ([12]; SRB): 5990 nM
- GI50 [13]: 1030 nM
- TGI MEL-28 [13]: 1.84E−06 Molar
- CC50 [13]: 3280 nM
- TGI A-549 ([14]; SRB): 2.29E−06 Molar
- GI50 ([14]; SRB): 1150 nM
- CC50 ([14]; SRB): 4550 nM

SMILES: C/C=C1\NC(=O)[C@H](Cc2ccccc2)NC(=O)[C@@H](C(C)C)NC(=O)[C@@H]([C@@H](C)CC)NC(=O)[C@H](NC(=O)[C@H](NC(=O)[C@H](CCCNC(=O)C(F)(F)F)NC(=O)[C@H]2CCCN2C(=O)[C@H](NC(=O)[C@@H](NC(=O)[C@@H](NC(=O)[C@H](NC(=O)CC[C@@H](C)CC)C(C)C)[C@@H](C)O)C(C)C)C(C)C)[C@@H](C)CC)[C@@H](C)OC(=O)[C@H](C(C)C)NC1=O [Compound 96, [Orn(N^δTfa)^8, 4(S)MeHex^14]-Kahalalide F]
- GI50 [1]: 178 nM
- TGI IGROV-ET [1]: 3.32E−07 Molar
- CC50 [1]: 619 nM
- GI50 [2]: 985 nM
- LC50 (concentration causing 50% net cell kill) [2]: 3810 nM
- TGI DU-145 [2]: 1.94E−06 Molar
- GI50 ([3]; SRB): 244 nM
- TGI HELA ([3]; SRB): 7.24E−07 Molar
- CC50 ([3]; SRB): 2590 nM
- TGI LN-caP [4]: 4.60E−06 Molar
- GI50 [4]: 1730 nM
- CC50 [4]: 6350 nM
- GI50 ([5]; SRB): 686 nM
- TGI HELA-APL ([5]; SRB): 1.62E−06 Molar
- CC50 ([5]; SRB): 3820 nM
- GI50 ([6]; SRB): 153 nM
- TGI LOVO-DOX ([6]; SRB): 2.93E−07 Molar
- CC50 ([6]; SRB): 559 nM
- GI50 [7]: 184 nM
- LC50 (concentration causing 50% net cell killing) [7]: 607 nM
- TGI IGROV [7]: 3.34E−07 Molar
- TGI HT-29 ([8]; SRB): 2.11E−07 Molar
- GI50 ([8]; SRB): 101 nM
- CC50 ([8]; SRB): 442 nM
- GI50 [9]: 64.8 nM
- LC50 [9]: 560 nM
- TGI SK-BR-3 [9]: 1.91E−07 Molar
- GI50 ([10]; SRB): 140 nM
- TGI LOVO ([10]; SRB): 2.64E−07 Molar
- CC50 ([10]; SRB): 500 nM
- GI50 ([11]; SRB): 6040 nM
- TGI PANC-1 ([11]; SRB): 6.35E−06 Molar
- CC50 ([11]; SRB): 6350 nM
- GI50 ([12]; SRB): 4500 nM
- TGI K-562 ([12]; SRB): 6.35E−06 Molar
- CC50 ([12]; SRB): 6350 nM
- GI50 [13]: 1220 nM
- TGI MEL-28 [13]: 2.15E−06 Molar
- CC50 [13]: 3770 nM
- TGI A-549 ([14]; SRB): 2.57E−06 Molar
- GI50 ([14]; SRB): 1260 nM
- CC50 ([14]; SRB): 5230 nM

SMILES: C/C=C1\NC(=O)[C@H](Cc2ccccc2)NC(=O)[C@@H](C(C)C)NC(=O)[C@@H]([C@@H](C)CC)NC(=O)[C@H](NC(=O)[C@H](NC(=O)[C@H](CCCN)NC(=O)[C@H]2CCCN2C(=O)[C@H](NC(=O)[C@@H](NC(=O)[C@@H](NC(=O)[C@H](NC(=O)CC[C@@H](C)[C@H]2CC[C@H]3[C@@H]4CC[C@@H]5C[C@H](OC(=O)C(F)(F)F)CC[C@]5(C)[C@H]4CC[C@]23C)C(C)C)[C@@H](C)OC(=O)C(F)(F)F)C(C)C)C(C)C)[C@@H](C)CC)[C@@H](C)OC(=O)[C@H](C(C)C)NC1=O [Compound 97, [Thr(OTfa)^12, Lit(OTfa)^14]-Kahalalide F]
- GI50 [1]: 232 nM
- TGI IGROV-ET [1]: 4.57E−07 Molar
- CC50 [1]: 2380 nM
- GI50 [2]: 517 nM
- LC50 (concentration causing 50% net cell kill) [2]: 2810 nM
- TGI DU-145 [2]: 1.21E−06 Molar
- GI50 ([3]; SRB): 809 nM
- TGI HELA ([3]; SRB): 1.78E−06 Molar
- CC50 ([3]; SRB): 3890 nM
- TGI LN-caP [4]: 1.81E−06 Molar
- GI50 [4]: 866 nM
- CC50 [4]: 3770 nM
- GI50 ([5]; SRB): 751 nM
- TGI HELA-APL ([5]; SRB): 1.61E−06 Molar
- CC50 ([5]; SRB): 3440 nM
- GI50 ([6]; SRB): 186 nM
- TGI LOVO-DOX ([6]; SRB): 3.96E−07 Molar
- CC50 ([6]; SRB): 4120 nM
- GI50 [7]: 244 nM
- LC50 (concentration causing 50% net cell killing) [7]: 2200 nM
- TGI IGROV [7]: 4.64E−07 Molar
- TGI HT-29 ([8]; SRB): 3.36E−07 Molar
- GI50 ([8]; SRB): 176 nM
- CC50 ([8]; SRB): 1190 nM
- GI50 [9]: 45.5 nM
- LC50 [9]: 324 nM
- TGI SK-BR-3 [9]: 1.17E−07 Molar
- GI50 ([10]; SRB): 128 nM
- TGI LOVO ([10]; SRB): 3.01E−07 Molar
- CC50 ([10]; SRB): 1090 nM
- GI50 ([11]; SRB): 2640 nM
- TGI PANC-1 ([11]; SRB): 5.22E−06 Molar
- CC50 ([11]; SRB): 5220 nM
- GI50 ([12]; SRB): 1280 nM
- TGI K-562 ([12]; SRB): 2.34E−06 Molar
- CC50 ([12]; SRB): 4270 nM
- GI50 [13]: 128 nM
- TGI MEL-28 [13]: 2.21E−07 Molar
- CC50 [13]: 384 nM
- TGI A-549 ([14]; SRB): 1.96E−06 Molar
- GI50 ([14]; SRB): 1050 nM
- CC50 ([14]; SRB): 3640 nM

SMILES: C/C=C1\NC(=O)[C@H](Cc2ccccc2)NC(=O)[C@@H](C(C)C)NC(=O)[C@@H]([C@@H](C)CC)NC(=O)[C@H](NC(=O)[C@H](NC(=O)[C@H](CCCN)NC(=O)[C@H]2CCCN2C(=O)[C@H](NC(=O)[C@@H](NC(=O)[C@@H](NC(=O)[C@@H](C(C)C)N(CCCCCCC)CCCCCCC)[C@@H](C)O)C(C)C)C(C)C)[C@@H](C)CC)[C@@H](C)OC(=O)[C@H](C(C)C)NC1=O [Compound 98, [no5-MeHex^14-N-(Hep)2-D-Val^13]-Kahalalide F]
- TGI IGROV-ET [1]: 6.40E−06 Molar
- TGI DU-145 [2]: 6.40E−06 Molar
- TGI HELA ([3]; HELA): 2.43E−06 Molar
- TGI LN-caP [4]: 6.40E−06 Molar
- TGI HELA-APL ([5]; HELA-APL): 3.46E−06 Molar
- TGI LOVO-DOX ([6]; LOVO-DOX): 6.40E−06 Molar
- TGI IGROV [7]: 6.40E−06 Molar
- TGI HT-29 ([8]; HT-29): 6.40E−06 Molar
- TGI SK-BR-3 [9]: 6.40E−06 Molar
- TGI LOVO ([10]; LOVO): 6.40E−06 Molar
- TGI PANC-1 ([11]; PANC-1): 6.40E−06 Molar
- TGI K-562 ([12]; K-562): 6.40E−06 Molar
- TGI MEL-28 [13]: 6.40E−06 Molar
- TGI A-549 ([14]; A-549): 6.40E−06 Molar
